TGI data for ten compounds are collected here from PubChem BioAssay (NCI).

Structures are written as SMILES.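 Dose response: 5 concentrations. Exposure: 48 h. Format: 96-well plates. Endpoint: linear interpolation; highest concentration if not reached. TGI marks complete inhibition of growth.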

Some test systems named below: HOP-92 NSCLC; LOX IMVI melanoma; SW-620 colon; MDA-MB-435; OVCAR-3 ovarian; SK-MEL-2 melanoma; CCRF-CEM leukemia; NCI-H226 lung; NCI-H23 lung; SF-268 CNS; K-562 leukemia; HCC-2998 colon; OVCAR-5 ovarian; M14 melanoma; NCI/ADR-RES ovarian; HL-60(TB) leukemia.
Common to all, as to assay: inhibition of tumour cell growth, NCI panel, 48 h

On to `Cc1nc2c(=O)n(C)c(=O)nc-2n(CCO)c1C`, for which the TGI with HOP-92 NSCLC, in the assay with LOX IMVI melanoma, in the assay with SW-620 colon, in the assay with MDA-MB-435, with OVCAR-3 ovarian and in the assay on SK-MEL-2 melanoma was greater than 100 µM each time. Further, the TGI with CCRF-CEM leukemia, in the assay on NCI-H226 lung, with NCI-H23 lung, with SF-268 CNS, with K-562 leukemia and in the assay on HCC-2998 colon was greater than 100 µM each time. The TGI in the assay with OVCAR-5 ovarian, in the assay on M14 melanoma and in the assay with NCI/ADR-RES ovarian was greater than 100 µM in each case.
Regarding `COc1cc(OC)cc(-n2c(N)c(-c3nc4ccccc4s3)c3ccc([N+](=O)[O-])cc3c2=O)c1`, the TGI in the assay with HOP-92 NSCLC was 15.8 µM; in the assay on HL-60(TB) leukemia, 13 µM; in the assay with LOX IMVI melanoma, greater than 100 µM; with SW-620 colon, greater than 100 µM; with MDA-MB-435 it was greater than 100 µM; with CCRF-CEM leukemia it was greater than 100 µM. In addition, the TGI with NCI-H226 lung, in the assay with NCI-H23 lung, in the assay on SF-268 CNS, with K-562 leukemia, in the assay on HCC-2998 colon and with NCI/ADR-RES ovarian was greater than 100 µM each time.
`c1ccc(CN2CCCN3CCN(CCCN(Cc4ccccc4)CC3)CC2)cc1`: the TGI is greater than 100 µM in the assay on HOP-92 NSCLC; 82.3 µM in the assay on HL-60(TB) leukemia; greater than 100 µM in the assay on LOX IMVI melanoma; greater than 100 µM in the assay on SW-620 colon; greater than 100 µM in the assay on MDA-MB-435; greater than 100 µM in the assay on OVCAR-3 ovarian. Further, the TGI in the assay on SK-MEL-2 melanoma is 49.9 µM; with CCRF-CEM leukemia, greater than 100 µM; with NCI-H226 lung, greater than 100 µM; with NCI-H23 lung it was greater than 100 µM; in the assay on SF-268 CNS, greater than 100 µM; with K-562 leukemia, greater than 100 µM. Also, the TGI in the assay on OVCAR-5 ovarian, in the assay with M14 melanoma and in the assay with NCI/ADR-RES ovarian was greater than 100 µM each time.
As for `CCN=C=NCCCN(C)C`, the TGI in the assay with HOP-92 NSCLC, in the assay with HL-60(TB) leukemia, in the assay on LOX IMVI melanoma, in the assay on SW-620 colon, with MDA-MB-435 and in the assay on OVCAR-3 ovarian was greater than 100 µM each time. Besides, the TGI with SK-MEL-2 melanoma, in the assay on CCRF-CEM leukemia, in the assay on NCI-H226 lung, with NCI-H23 lung, in the assay with SF-268 CNS and with K-562 leukemia was greater than 100 µM in each case. The TGI with OVCAR-5 ovarian, in the assay on M14 melanoma and in the assay on NCI/ADR-RES ovarian was greater than 100 µM in each case.
In the case of `FC(F)(F)c1ccc2c(c1)nc(Cc1ccc(Cl)c(Cl)c1)n2CC1CCCN2CCCCC12` (centres undefined), the TGI was greater than 100 µM in the assay with HOP-92 NSCLC; 51.3 µM with HL-60(TB) leukemia; 31.6 µM in the assay on LOX IMVI melanoma; greater than 100 µM in the assay on SW-620 colon; greater than 100 µM with MDA-MB-435; 82.3 µM in the assay on OVCAR-3 ovarian. For the same compound, the TGI in the assay on SK-MEL-2 melanoma was 76.3 µM; in the assay on NCI-H226 lung, 90.7 µM; with SF-268 CNS, greater than 100 µM; with K-562 leukemia it was greater than 100 µM; with HCC-2998 colon it was 22.5 µM; in the assay with OVCAR-5 ovarian, 46.2 µM. Further, the results for the TGI in the assay with M14 melanoma and with NCI/ADR-RES ovarian were 25.2 µM and 84.7 µM, respectively.
With `N#Cc1nc(Sc2cnsn2)c(Sc2cnsn2)nc1C#N`, the TGI was greater than 70.5 µM in the assay with HOP-92 NSCLC; 6.24 µM in the assay on HL-60(TB) leukemia; 50.2 µM in the assay with LOX IMVI melanoma; greater than 22.5 µM in the assay with SW-620 colon; 33.8 µM in the assay on MDA-MB-435; 22.1 µM with OVCAR-3 ovarian. Moreover, the TGI is 47 µM in the assay with SK-MEL-2 melanoma; 43.7 µM in the assay with NCI-H226 lung; 46.2 µM in the assay on NCI-H23 lung; 40.6 µM in the assay with SF-268 CNS; greater than 81.8 µM in the assay with K-562 leukemia; 33.5 µM in the assay with HCC-2998 colon. Besides, the values for the TGI in the assay with OVCAR-5 ovarian, in the assay on M14 melanoma and in the assay on NCI/ADR-RES ovarian were 38.8 µM, 60.7 µM and 54.3 µM, respectively.
Take `COc1cc(/C=C/C=C2\CCC/C(=C\C=C\c3ccc(O)c(OC)c3)C2=O)ccc1O`: the TGI is 44.9 µM with HOP-92 NSCLC; greater than 100 µM in the assay on HL-60(TB) leukemia; 33.5 µM with LOX IMVI melanoma; 51.1 µM in the assay with SW-620 colon; greater than 100 µM in the assay on MDA-MB-435; greater than 100 µM with OVCAR-3 ovarian. The TGI in the assay with SK-MEL-2 melanoma was 87.5 µM; in the assay on CCRF-CEM leukemia, 8.99 µM; with NCI-H23 lung, greater than 100 µM; with SF-268 CNS it was 40.4 µM; with K-562 leukemia it was greater than 100 µM; in the assay on HCC-2998 colon, greater than 100 µM. Also, the results for the TGI with OVCAR-5 ovarian, in the assay with M14 melanoma and with NCI/ADR-RES ovarian were 79.5 µM, greater than 100 µM and 48.8 µM, respectively.
For the compound `COc1ccc(/C=N/NC(=O)c2ccccc2Nc2ccccc2C(=O)N/N=C/c2ccc(OC)cc2)cc1`, the TGI with HOP-92 NSCLC, in the assay with LOX IMVI melanoma, with SW-620 colon, in the assay on MDA-MB-435, in the assay on OVCAR-3 ovarian and with SK-MEL-2 melanoma was greater than 100 µM in each case. Further, the TGI in the assay with CCRF-CEM leukemia, with NCI-H226 lung, with NCI-H23 lung, with SF-268 CNS, in the assay on K-562 leukemia and in the assay with HCC-2998 colon was greater than 100 µM in each case. Besides, the TGI in the assay on OVCAR-5 ovarian, in the assay with M14 melanoma and in the assay with NCI/ADR-RES ovarian was greater than 100 µM each time.
`CCCCCCCC/C=C\CCCCCCCC(=O)OC[C@]1(CO)CCC(=O)O1`: the TGI in the assay with HOP-92 NSCLC, in the assay with LOX IMVI melanoma, in the assay on SW-620 colon, with MDA-MB-435, in the assay with OVCAR-3 ovarian and in the assay on SK-MEL-2 melanoma was greater than 100 µM in each case. For the same compound, the TGI in the assay on CCRF-CEM leukemia, in the assay with NCI-H226 lung, with NCI-H23 lung, in the assay on SF-268 CNS, with K-562 leukemia and in the assay on HCC-2998 colon was greater than 100 µM throughout. In addition, the TGI in the assay on OVCAR-5 ovarian, in the assay on M14 melanoma and in the assay with NCI/ADR-RES ovarian was greater than 100 µM throughout.
With `CC(NC1=NCCO1)c1cccs1` (centres undefined), the TGI is 47 µM with HOP-92 NSCLC; 45.4 µM in the assay on HL-60(TB) leukemia; greater than 100 µM in the assay on SW-620 colon; 44.4 µM with MDA-MB-435; 78.5 µM in the assay on CCRF-CEM leukemia; greater than 100 µM in the assay on NCI-H226 lung. Besides, the TGI in the assay with NCI-H23 lung is greater than 100 µM; in the assay on SF-268 CNS, 69.9 µM; in the assay on K-562 leukemia, 59.6 µM; in the assay on HCC-2998 colon, 31.5 µM; with OVCAR-5 ovarian it was greater than 100 µM; in the assay with M14 melanoma it was 35.7 µM. The TGI in the assay on NCI/ADR-RES ovarian was greater than 100 µM.
